Test results as given in patent US10717716B2, “1,3,4-oxadiazole derivative compounds as histone deacetylase 6 inhibitor, and the pharmaceutical composition comprising the same” (Chong Kun Dang Pharmaceutical Corp., priority 2015, dated 2020).

Molecular target: T1, human recombinant HDAC6 (Homo sapiens, UniProt Q9UBN7)
T1 construct: purchased Calbiochem 382180
T1 sequence (Q9UBN7 1-1215): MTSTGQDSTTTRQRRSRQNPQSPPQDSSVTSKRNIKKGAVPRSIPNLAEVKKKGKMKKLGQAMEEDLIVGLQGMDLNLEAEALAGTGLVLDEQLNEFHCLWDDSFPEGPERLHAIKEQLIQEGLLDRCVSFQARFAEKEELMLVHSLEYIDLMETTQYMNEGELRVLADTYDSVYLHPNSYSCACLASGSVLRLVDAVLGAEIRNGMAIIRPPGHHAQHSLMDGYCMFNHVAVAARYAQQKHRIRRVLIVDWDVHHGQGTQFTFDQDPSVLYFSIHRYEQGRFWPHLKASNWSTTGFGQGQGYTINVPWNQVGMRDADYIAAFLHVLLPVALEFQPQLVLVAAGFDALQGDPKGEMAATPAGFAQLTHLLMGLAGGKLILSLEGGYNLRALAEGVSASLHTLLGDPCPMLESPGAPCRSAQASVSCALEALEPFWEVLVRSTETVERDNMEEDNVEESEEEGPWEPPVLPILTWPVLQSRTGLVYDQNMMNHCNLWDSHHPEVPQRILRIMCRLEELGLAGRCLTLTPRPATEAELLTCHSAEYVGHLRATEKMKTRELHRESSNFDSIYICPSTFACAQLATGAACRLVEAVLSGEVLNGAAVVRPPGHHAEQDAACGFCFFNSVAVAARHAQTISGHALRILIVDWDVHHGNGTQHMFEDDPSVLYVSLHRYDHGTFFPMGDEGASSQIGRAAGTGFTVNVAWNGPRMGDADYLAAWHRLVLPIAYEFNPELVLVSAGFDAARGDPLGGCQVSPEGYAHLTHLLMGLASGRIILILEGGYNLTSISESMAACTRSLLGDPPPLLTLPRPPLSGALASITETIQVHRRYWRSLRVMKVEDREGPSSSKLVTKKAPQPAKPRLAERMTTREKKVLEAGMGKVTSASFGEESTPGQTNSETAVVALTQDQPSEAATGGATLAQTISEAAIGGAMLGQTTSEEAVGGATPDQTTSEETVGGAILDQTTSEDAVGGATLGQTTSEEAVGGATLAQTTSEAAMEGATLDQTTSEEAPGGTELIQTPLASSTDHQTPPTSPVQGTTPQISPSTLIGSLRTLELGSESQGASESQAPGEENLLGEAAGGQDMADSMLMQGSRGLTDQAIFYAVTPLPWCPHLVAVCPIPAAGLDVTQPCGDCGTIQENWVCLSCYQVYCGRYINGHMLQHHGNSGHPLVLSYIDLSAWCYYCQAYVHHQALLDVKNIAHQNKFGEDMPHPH
Experiment: HDAC6 enzyme activity inhibition assay (HDAC Fluorimetric Drug Discovery Kit)
Type: biochemical
Settings: for HDAC6 selectivity (fold): HDAC6 over HDAC1; for IC50: human recombinant HDAC6, same protocol as HDAC1, read-out: HDAC6
Method in brief: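 Human recombinant HDAC1 or HDAC6 (0.3 μg) reacted with 10 μM Fluor de Lys-SIRT1 substrate and 5-fold compound dilutions for 60 min at 30 °C. Developer II added for 30 min, fluorescence read at Ex 360/Em 460; IC50 calculated from the readings.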

Row | HDAC6 selectivity (fold) | IC50 [nM] | SMILES
1 | 111 | 90 | CC(=O)N1CCN(CCNC(=O)N(Cc2ccc(-c3nnc(C(F)F)o3)cc2F)c2ccccc2)CC1 [Compound 21995, 3-(2-(4-Acetylpiperazin-1-yl)ethyl)-1-(4-(5-(difluoromethyl)-1,3,4-oxadiazol-2-yl)-2-fluorobenzyl)-1-phenylurea]
2 | 90 | 111 | Cn1ncc2ccc(-c3ccc(N(Cc4ccc(-c5nnc(C(F)F)o5)cc4)C(=O)N4CCS(=O)(=O)CC4)cc3)cc21 [Compound 21488, N-(4-(5-(difluoromethyl)-1,3,4-oxadiazol-2-yl)benzyl)-N-(4-(1-methyl-1H-indazol-6-yl)phenyl)thiomorpholine-4-carboxamide 1,1-dioxide]
3 | 42 | 236 | CC(C)(C)CN1CCN(Cc2ccc(N(Cc3ccc(-c4nnc(C(F)F)o4)cc3F)C(=O)N3CCS(=O)(=O)CC3)cc2)CC1 [Compound 21895, N-(4-(5-(difluoromethyl)-1,3,4-oxadiazol-2-yl)-2-fluorobenzyl)-N-(4-((4-neopentylpiperazin-1-yl)methyl)phenyl)thiomorpholine-4-carboxamide 1,1-dioxide]
4 | 668 | 15 | CCN1CCN(C(=O)N(Cc2ccc(-c3nnc(C(F)F)o3)cc2F)c2ccc(F)c(Cl)c2)CC1 [Compound 21591, N-(3-chloro-4-fluorophenyl)-N-(4-(5-(difluoromethyl)-1,3,4-oxadiazol-2-yl)-2-fluorobenzyl)-4-ethylpiperazine-1-carboxamide]
5 | 6 | 1740 | O=C(N1CCOCC1)N(Cc1ccc(-c2nnc(C(F)(F)F)o2)cc1F)C12CC3CC(CC(C3)C1)C2 [Compound 21931, N-((3s,5s,7s)-adamantan-1-yl)-N-(2-fluoro-4-(5-(trifluoromethyl)-1,3,4-oxadiazol-2-yl)benzyl)morpholine-4-carboxamide]
6 | 12 | 849 | CN(Cc1ccc(-c2nnc(C(F)(F)F)o2)cc1)C(=O)N1CCOCC1 [Compound 21398, N-methyl-N-(4-(5-(trifluoromethyl)-1,3,4-oxadiazol-2-yl)benzyl)morpholine-4-carboxamide]
7 | 245 | 41 | Cc1ccccc1N(Cc1ccc(-c2nnc(C(F)F)o2)cn1)C(=O)N1CCN(C)CC1 [Compound 21632, N-((5-(5-(difluoromethyl)-1,3,4-oxadiazol-2-yl)pyridin-2-yl)methyl)-4-methyl-N-(o-tolyl)piperazine-1-carboxamide]
8 | 6 | 1750 | CCN(Cc1ccc(-c2nnc(C(F)(F)F)o2)cc1)C(=O)N1CCS(=O)(=O)CC1 [Compound 21375, N-ethyl-N-(4-(5-(trifluoromethyl)-1,3,4-oxadiazol-2-yl)benzyl)thiomorpholine-4-carboxamide 1,1-dioxide]
9 | 1 |  | O=C(N1CCOCC1)N(Cc1cccc(-c2nnc(C(F)(F)F)o2)c1)c1ccccc1 [Compound 21329, N-phenyl-N-(3-(5-(trifluoromethyl)-1,3,4-oxadiazol-2-yl)benzyl)morpholine-4-carboxamide]
10 | 81 | 123 | O=C(N1CCN(C2COC2)CC1)N(Cc1ccc(-c2nnc(C(F)F)o2)cc1F)c1ccc(Cl)cc1 [Compound 21946, N-(4-Chlorophenyl)-N-(4-(5-(difluoromethyl)-1,3,4-oxadiazol-2-yl)-2-fluorobenzyl)-4-(oxetan-3-yl)piperazine-1-carboxamide]
11 | 128 | 78 | CN1CCN(C(=O)N(Cc2ccc(-c3nnc(C(F)F)o3)cc2F)c2ccc(Br)cc2)CC1 [Compound 21466, N-(4-bromophenyl)-N-(4-(5-(difluoromethyl)-1,3,4-oxadiazol-2-yl)-2-fluorobenzyl)-4-methylpiperazine-1-carboxamide]
12 | 130 | 77 | CS(=O)(=O)N1CC2(CCN(C(=O)N(Cc3ccc(-c4nnc(C(F)(F)F)o4)cc3)c3ccccc3)CC2)C1 [Compound 21419, 2-(Methylsulfonyl)-N-phenyl-N-(4-(5-(trifluoromethyl)-1,3,4-oxadiazol-2-yl)benzyl)-2,7-diazaspiro[3.5]nonane-7-carboxamide]
13 | 37 | 271 | CN1CCN(c2ccc(N(Cc3ccc(-c4nnc(C(F)F)o4)cn3)C(=O)N3CCS(=O)(=O)CC3)cc2)CC1 [Compound 21628, N-((5-(5-(difluoromethyl)-1,3,4-oxadiazol-2-yl)pyridin-2-yl)methyl)-N-(4-(4-methylpiperazin-1-yl)phenyl)thiomorpholine-4-carboxamide 1,1-dioxide]

Further lines, the molecule ahead of its results:

Row | SMILES | HDAC6 selectivity (fold) | IC50 [nM]
14 | CC1CCN(CCNC(=O)N(Cc2ccc(-c3nnc(C(F)F)o3)cc2F)c2ccccc2)CC1 [Compound 21989, 1-(4-(5-(Difluoromethyl)-1,3,4-oxadiazol-2-yl)-2-fluorobenzyl)-3-(2-(4-methylpiperidin-1-yl)ethyl)-1-phenylurea] | 80 | 124
15 | O=C(N1CCC(F)(F)CC1)N(Cc1ccc(-c2nnc(C(F)(F)F)o2)cc1)c1ccccc1 [Compound 21377, 4,4-Difluoro-N-phenyl-N-(4-(5-(trifluoromethyl)-1,3,4-oxadiazol-2-yl)benzyl)piperidine-1-carboxamide] | 30 | 334
16 | O=C(NCCN1CC(F)(F)C1)N(Cc1ccc(-c2nnc(C(F)F)o2)cc1F)c1ccccc1 [Compound 21983, 3-(2-(3,3-Difluoroazetidin-1-yl)ethyl)-1-(4-(5-(difluoromethyl)-1,3,4-oxadiazol-2-yl)-2-fluorobenzyl)-1-phenylurea] | 63 | 160
17 | COc1ccc(N(Cc2ccc(-c3nnc(C(F)(F)F)o3)cn2)C(=O)N2CCS(=O)(=O)CC2)cc1 [Compound 21454, N-(4-methoxyphenyl)-N-((5-(5-(trifluoromethyl)-1,3,4-oxadiazol-2-yl)pyridin-2-yl)methyl)thiomorpholine-4-carboxamide 1,1-dioxide] | 94 | 106
18 | O=C(N1CCS(=O)(=O)CC1)N(Cc1ccc(-c2nnc(C(F)F)o2)nc1)c1ccc(F)c(Cl)c1 [Compound 21767, N-(3-Chloro-4-fluorophenyl)-N-((6-(5-(difluoromethyl)-1,3,4-oxadiazol-2-yl)pyridin-3-yl)methyl)thiomorpholine-4-carboxamide 1,1-dioxide] | 9 | 1140
19 | COCCN1CCN(C(=O)N(Cc2ccc(-c3nnc(C(F)(F)F)o3)cc2)c2ccccc2)CC1 [Compound 21345, 4-(2-Methoxyethyl)-N-phenyl-N-(4-(5-(trifluoromethyl)-1,3,4-oxadiazol-2-yl)benzyl)piperazine-1-carboxamide] | 54 | 185
20 | O=C(NCCN1CCN(c2ccccn2)CC1)N(Cc1ccc(-c2nnc(C(F)F)o2)cc1F)c1ccccc1 [Compound 22008, 1-(4-(5-(Difluoromethyl)-1,3,4-oxadiazol-2-yl)-2-fluorobenzyl)-1-phenyl-3-(2-(4-(pyridin-2-yl)piperazin-1-yl)ethyl)urea] | 73 | 138
21 | O=C(NCCN1CCC[C@H]1C(F)(F)F)N(Cc1ccc(-c2nnc(C(F)F)o2)cc1F)c1ccccc1 [Compound 21988, (S)-1-(4-(5-(difluoromethyl)-1,3,4-oxadiazol-2-yl)-2-fluorobenzyl)-1-phenyl-3-(2-(2-(trifluoromethyl)pyrrolidin-1-yl)ethyl)urea] | 33 | 301
22 | CC(C)(F)CN1CCN(Cc2ccc(N(Cc3ccc(-c4nnc(C(F)F)o4)cc3F)C(=O)N3CCS(=O)(=O)CC3)cc2)CC1 [Compound 21901, N-(4-(5-(difluoromethyl)-1,3,4-oxadiazol-2-yl)-2-fluorobenzyl)-N-(4-((4-(2-fluoro-2-methylpropyl)piperazin-1-yl)methyl)phenyl)thiomorpholine-4-carboxamide 1,1-dioxide] | 29 | 349
